# Measured values as given in patent publication US7915282B2, “C2-phenyl-substituted cyclic keto-enols used as pesticides and herbicides” (Bayer Aktiengesellschaft, priority 2000, dated 2011).
# Experiments:
# Type in all cases: in vivo
# [1] = tested on: green rice leaf hopper (Nephotettix cincticeps); test: Nephotettix test; conditions: active compound concentration of 1000 ppm; after 6 days; rice seedlings dipped
# Protocol: [table] To produce a suitable preparation of active compound, 1 part by weight of active compound is mixed with the stated amounts of solvent and emulsifier, and the concentrate is diluted with emulsifier-containing, water to the desired concentration. Rice seedlings (Oryza sativa) are treated by being dipped into the preparation of active compound of the desired concentrated and are populated with the green rice leaf hopper (Nephotettix cincticeps) while the leaves are still moist. After the desired period of time, the kill in % is determined. 100% means that all leaf hoppers have been killed; 0% means that none of the leaf hoppers have been killed.
# [2] = tested on: peach aphids (Myzus persicae); test: Myzus test; conditions: active compound concentration of 1000 ppm; after 6 days; infested cabbage leaves dipped
# Protocol: [table] To produce a suitable preparation of active compound, 1 part by weight of active compound is mixed with the stated amounts of solvent and emulsifier, and the concentrate is diluted with emulsifier-containing water to the desired concentration. Cabbage leaves (Brassica oleracea) which are heavily infested by the peach aphids (Myzus persicae) are treated by being dipped into the preparation of active compound of the desired concentration. After the desired period of time, the kill in % is determined. 100% means that all aphids have been killed; 0% means that none of the aphids have been killed.
# Alopecurus [3] = test: Pre-emergence test; conditions: after three weeks
# Protocol: (§1) [table] To produce a suitable preparation of active compound, 1 part by weight of active compound is mixed with the stated amount of solvent, the stated amount emulsifier is added and the concentrate is diluted with water to the desired concentration. Seeds of the test plants are sown in normal soil. After about 24 hours, the soil is sprayed with the preparation of active compound such that the particular amounts of active compound desired are applied per unit area. The concentration of the spray liquor is chosen such that the particular amounts of active compound desired are applied in 1000 l of water/ha. After three weeks, the degree of damage to the plants is rated in % damage in comparison to the development of the untreated controls. The figures denote: [table]
# Echinochloa [4] = test: Pre-emergence test; conditions: after three weeks
# Protocol: as §1
# Avena fatua [5] = test: Pre-emergence test; conditions: after three weeks
# Protocol: as §1
# Digitaria [6] = test: Post-emergence test; conditions: after three weeks
# Protocol: (§2) [table] To produce a suitable preparation of active compound, 1 part by weight of active compound is mixed with the stated amount of solvent, the stated amount of emulsifier is added and the concentrate is diluted with water to the desired concentration. Test plants of a height of 5-15 cm are sprayed with the preparation of active compound such that the particular amounts of active compound desired are applied per unit area. The concentration of the spray liquor is chosen such that the particular amount of active compound desired is applied in 1000 l of water/ha. After three weeks, the degree of damage to the plants is rated in % damage in comparison to the development of the untreated control. The figures denote: [table]
# Lolium [7] = test: Post-emergence test; conditions: 125 g ai/ha, after three weeks
# Protocol: as §2
# Sorghum = test: Post-emergence test; conditions: 125 g ai/ha, after three weeks
# Protocol: as §2
# Setaria [8] = test: Post-emergence test; conditions: after three weeks
# Protocol: as §2
# white fly Bemisia tabaci = test: Bemisia test; conditions: active compound concentration of 1000 ppm; after 10 days; infested cotton plants dipped
# Protocol: [table] To produce a suitable preparation of active compound, 1 part by weight of active compound is mixed with the stated amounts of solvent and emulsifier, and the concentrate is diluted with emulsifier-containing water to the desired concentrations. Cotton plants (Gossypium hirsutum) which are infested by eggs, larvae and pupae of the white fly Bemisia tabaci are dipped into a preparation of active compound of the desired concentration. After the desired period of time, the kill in % is determined. 100% means that all animals have been killed; 0% means that none of the animals have been killed.
# [9] = tested on: larvae of the mustard beetle (Phaedon cochleariae); test: Phaedon larvae test; conditions: active compound concentration of 1000 ppm; after 7 days; cabbage leaves dipped
# Protocol: (§3) [table] To produce a suitable preparation of active compound, 1 part by weight of active compound is mixed with the stated amounts of solvent and emulsifier, and the concentrate is diluted with emulsifier-containing water to the desired concentration. Cabbage leaves (Brassica oleracea) are treated by being dipped into the preparation of active compound of the desired concentration and are populated with larvae of the mustard beetle (Phaedon cochleariae) while the leaves are still moist. After the desired period of time, the kill in % is determined. 100% means that all beetle larvae have been killed; 0% means that none of the beetle larvae have been killed.
# [10] = tested on: greenhouse red spider mite (Tetranychus urticae); test: Tetranychus test (OP-resistant/dip treatment); conditions: active compound concentration of 1000 ppm; after 7 days; infested bean plants dipped
# Protocol: [table] To produce a suitable preparation of active compound, 1 part by weight of active compound is mixed with the stated amounts of solvent and emulsifier, and the concentrate is diluted with emulsifier-containing water to the desired concentration. Bean plants (Phaseolus vulgaris) which are heavily infested by all stages of the greenhouse red spider mite (Tetranychus urticae) are dipped into a preparation of active compound of the desired concentration. After the desired period of time, the effect in % is determined. 100% means that all spider mites have been killed; 0% means that none of the spider mites have been killed.
# [11] = tested on: caterpillars of the owlet moth (Plutella xylostella); test: Plutella test; conditions: active compound concentration of 1000 ppm; after 7 days; cabbage leaves dipped
# Protocol: as §3, with “caterpillars” for “larvae”, “owlet moth (Plutella xylostella)” for “mustard beetle (Phaedon cochleariae)”, “caterpillars” for “beetle larvae”
# Veronica = test: Pre-emergence test; conditions: 125 g ai/ha, after three weeks
# Protocol: as §1
# Sugar beet [12] = test: Pre-emergence test; conditions: 125 g ai/ha, after three weeks
# Protocol: as §1
# Digitaria [13] = test: Pre-emergence test; conditions: 125 g ai/ha, after three weeks
# Protocol: as §1
# Soya bean [14] = test: Pre-emergence test; conditions: 125 g ai/ha, after three weeks
# Protocol: as §1
# Lolium [15] = test: Pre-emergence test; conditions: 125 g ai/ha, after three weeks
# Protocol: as §1
# Setaria [16] = test: Pre-emergence test; conditions: 125 g ai/ha, after three weeks
# Protocol: as §1
# Sugar beet [17] = test: Post-emergence test; conditions: after three weeks
# Protocol: as §2
# Wheat = test: Post-emergence test; conditions: 125 g ai/ha, after three weeks
# Protocol: as §2
# Echinochloa [18] = test: Post-emergence test; conditions: 125 g ai/ha, after three weeks
# Protocol: as §2
# Cotton = test: Post-emergence test; conditions: after three weeks
# Protocol: as §2
# Soya bean [19] = test: Post-emergence test; conditions: 125 g ai/ha, after three weeks
# Protocol: as §2
# Galium = test: Post-emergence test; conditions: 125 g ai/ha, after three weeks
# Protocol: as §2
# Alopecurus [20] = test: Post-emergence test; conditions: 15 g ai/ha, after three weeks
# Protocol: as §2
# Avena fatua [21] = test: Post-emergence test; conditions: 15 g ai/ha, after three weeks
# Protocol: as §2
compound,measurement,setting,value
CCc1cc(C)c(C2=C(O)C(C)(C)NC2=O)c(CC)c1 [Example I-1-a-1],kill in %,[1],100%
CCc1cc(CC)c(C2=C(O)C3(CCC(OC)CC3)NC2=O)c(CC)c1 (stereo not drawn) [Example I-1-a-6],kill in %,[2],100%
same,% damage Alopecurus,Alopecurus [3]; 60 g ai/ha,90%
same,% damage Echinochloa,Echinochloa [4]; 60 g ai/ha,90%
same,% damage Avena fatua,Avena fatua [5]; 60 g ai/ha,80%
same,% damage Digitaria,Digitaria [6]; 125 g ai/ha,95%
same,% damage Lolium,Lolium [7],80%
same,% damage Sorghum,Sorghum,100%
same,% damage Setaria,Setaria [8]; 125 g ai/ha,95%
CCc1cc(C)cc(C)c1C1=C(OC(=O)C(C)(C)C)C2(CCCCC2)OC1=O [Example I-2-b-9],kill in %,white fly Bemisia tabaci,100%
same,kill in %,[1],100%
C=Cc1cc(C)cc(C)c1C1=C(OC(=O)C(C)(C)C)C2(CCC(OC)CC2)OC1=O (stereo not drawn) [Example I-2-b-8],kill in %,[9],100%
same,kill in %,[10],100%
CCc1cc(C)cc(C)c1-c1c(O)c(C)c(-c2ccc(F)cc2)oc1=O [Example I-4-a-1],kill in %,[2],100%
same,kill in %,[9],100%
same,kill in %,[10],100%
same,kill in %,[11],100%
same,kill in %,[1],100%
same,% damage Veronica,Veronica,95%
same,% damage Alopecurus,Alopecurus [3]; 125 g ai/ha,100%
same,% damage Sugar beet,Sugar beet [12],0%
same,% damage Digitaria,Digitaria [13],100%
same,% damage Soya bean,Soya bean [14],0%
same,% damage Lolium,Lolium [15],100%
same,% damage Setaria,Setaria [16],100%
same,% damage Sugar beet,Sugar beet [17]; 125 g ai/ha,0%
same,% damage Digitaria,Digitaria [6]; 125 g ai/ha,100%
same,% damage Wheat,Wheat,20%
same,% damage Sorghum,Sorghum,90%
same,% damage Echinochloa,Echinochloa [18],90%
same,% damage Cotton,Cotton; 125 g ai/ha,0%
same,% damage Setaria,Setaria [8]; 125 g ai/ha,95%
C=Cc1cc(C)c(C)cc1C1=C(OC(=O)C(C)C)C2(CCC(OC)CC2)OC1=O (stereo not drawn) [Example I-2-b-13],% damage Digitaria,Digitaria [6]; 125 g ai/ha,80%
same,% damage Soya bean,Soya bean [19],0%
same,% damage Lolium,Lolium [7],70%
same,% damage Wheat,Wheat,10%
same,% damage Cotton,Cotton; 125 g ai/ha,0%
same,% damage Setaria,Setaria [8]; 125 g ai/ha,95%
CCc1cc(CC)c(C2=C(OC(=O)C(C)CC)C3(CCC(OC)CC3)OC2=O)c(CC)c1 (stereo not drawn) [Example I-2-b-11],kill in %,[10],100%
C=Cc1cc(C)c(C2=C(OC(=O)C(C)CC)C3(CCC(OC)CC3)OC2=O)cc1C (stereo not drawn) [Example I-2-b-12],% damage Digitaria,Digitaria [6]; 125 g ai/ha,95%
same,% damage Soya bean,Soya bean [19],0%
same,% damage Lolium,Lolium [7],90%
same,% damage Cotton,Cotton; 125 g ai/ha,0%
same,% damage Setaria,Setaria [8]; 125 g ai/ha,95%
C=Cc1cc(C)c(C2=C(OC(=O)C(C)(C)C)C3(CCC(C)CC3)OC2=O)c(C)c1 (stereo not drawn) [Example I-2-b-6],kill in %,[2],100%
same,kill in %,[9],100%
CCc1cc(C)c(C2=C(O)C3(CCC(OC)CC3)NC2=O)c(CC)c1 (stereo not drawn) [Example I-1-a-3],kill in %,[9],100%
same,kill in %,[10],100%
same,kill in %,[1],100%
same,% damage Alopecurus,Alopecurus [3]; 125 g ai/ha,100%
same,% damage Digitaria,Digitaria [13],100%
same,% damage Lolium,Lolium [15],100%
same,% damage Echinochloa,Echinochloa [4]; 125 g ai/ha,100%
same,% damage Avena fatua,Avena fatua [5]; 125 g ai/ha,95%
same,% damage Setaria,Setaria [16],100%
same,% damage Galium,Galium,80%
same,% damage Digitaria,Digitaria [6]; 125 g ai/ha,80%
same,% damage Lolium,Lolium [7],70%
same,% damage Setaria,Setaria [8]; 125 g ai/ha,90%
CCc1cc(C)cc(C)c1C1=C(O)C2(CCC(C)CC2)NC1=O (stereo not drawn) [Example I-1-a-9],kill in %,[1],100%
same,% damage Veronica,Veronica,90%
same,% damage Alopecurus,Alopecurus [3]; 125 g ai/ha,100%
same,% damage Sugar beet,Sugar beet [12],0%
same,% damage Digitaria,Digitaria [13],100%
same,% damage Soya bean,Soya bean [14],0%
same,% damage Lolium,Lolium [15],100%
same,% damage Setaria,Setaria [16],100%
same,% damage Alopecurus,Alopecurus [20],100%
same,% damage Sugar beet,Sugar beet [17]; 15 g ai/ha,10%
same,% damage Digitaria,Digitaria [6]; 15 g ai/ha,95%
same,% damage Cotton,Cotton; 15 g ai/ha,0%
same,% damage Avena fatua,Avena fatua [21],95%
same,% damage Setaria,Setaria [8]; 15 g ai/ha,100%
C=Cc1cc(C)c(C2=C(OC(=O)C(C)(C)C)C3(CCCCC3)OC2=O)c(C)c1 [Example I-2-b-2],kill in %,[10],100%
C=Cc1cc(C)c(C2=C(OC(=O)C(C)(C)C)C3(CCC(OC)CC3)OC2=O)c(C)c1 (stereo not drawn) [Example I-2-b-5],kill in %,[2],100%
